Assay results published in PubChem BioAssay (NCI).
“And” between values parts separate entries of the source, which are not always exact repeats. Equal values may be shown once.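 48-hour exposure; five concentrations; linearly interpolated endpoints. GI50 = concentration required for 50% inhibition of growth. TGI: concentration producing complete growth inhibition.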

Assays:
Experiment in all cases: NCI tumour cell line growth inhibition, 48 h
[1] = tested on: A498 renal
[2] = tested on: ACHN renal
[3] = tested on: CAKI-1 renal
[4] = tested on: HCT-116 colon
[5] = tested on: HT29 colon
[6] = tested on: MDA-MB-231 breast
[7] = tested on: SK-MEL-2 melanoma
[8] = tested on: SNB-19 CNS
[9] = tested on: SR leukemia
[10] = tested on: U251 CNS

COc1cc(-c2oc3ccccc3c(=O)c2O)cc(OC)c1OC
TGI [1]: > 100 µM
TGI [2]: 75.4 µM
TGI [3]: > 100 µM
TGI [4]: > 100 µM
TGI [5]: > 100 µM
TGI [6]: > 100 µM
TGI [7]: > 100 µM
TGI [8]: > 100 µM
TGI [9]: > 24.8 µM
TGI [10]: > 100 µM

CC1(C)CCC(C)(C)c2cc(C(=O)Nc3ccc(C(=O)O)cc3)ccc21
TGI [1]: > 100 µM
TGI [2]: > 61.2 µM
TGI [3]: 37.2 µM
TGI [4]: 37.4 µM
TGI [5]: > 68.2 µM
TGI [6]: > 95.2 µM
TGI [7]: 44.7 µM
TGI [8]: > 66.4 µM
TGI [9]: > 81.9 µM
TGI [10]: > 100 µM

COC1/C=C/OC2(C)Oc3c(C)c(O)c4c(c3C2=O)C(=O)C=C(NC(=O)/C(C)=C\C=C\C(C)C(OC=O)C(C)C(O)C(C)C(OC(C)=O)C1C)C4=O (centres undefined)
TGI [1]: 41.3 µM
TGI [2]: 21.5 µM
TGI [3]: 28.3 µM
TGI [4]: 14.1 µM
TGI [5]: 23.4 µM
TGI [6]: > 48.5 µM
TGI [7]: 36.6 µM
TGI [8]: 27.4 µM
TGI [9]: 8.08 µM
TGI [10]: 38.2 µM

CN1CCCN(CCNc2nccc(-c3c(-c4cccc(O)c4)nc4sccn34)n2)S1(=O)=O
GI50 [1]: 5.31 µM and 3.4 µM
TGI [1]: 17.5 µM and 12.6 µM
GI50 [2]: 2.72 µM and 2.91 µM
TGI [2]: 75 µM and > 100 µM
GI50 [3]: 2.25 µM and 2.15 µM
TGI [3]: 23.5 µM and 16.3 µM
GI50 [4]: 2.96 µM and 4.39 µM
TGI [4]: 14.9 µM and 18.8 µM
GI50 [5]: 2.32 µM and 2.33 µM
TGI [5]: 42.2 µM and > 100 µM
GI50 [6]: 10 µM and 8.06 µM
TGI [6]: 59.2 µM and > 84.4 µM
GI50 [7]: 2.37 µM and 2.15 µM
TGI [7]: 7.29 µM and 6.74 µM
GI50 [8]: 40 µM and 48.7 µM
TGI [8]: 75 µM and > 100 µM
GI50 [9]: 4.57 µM and 2.85 µM
TGI [9]: 35.2 µM and 27.8 µM
GI50 [10]: 8.99 µM and 11.9 µM
TGI [10]: 50.4 µM and > 51.1 µM

Cn1cc(C2=C(c3cn(C)c4ccc(N)cc34)C(=O)NC2=O)c2ccccc21
GI50 [1]: 9.28 µM
TGI [1]: > 25 µM
GI50 [2]: 13.9 µM
TGI [2]: > 25 µM
GI50 [3]: 4.85 µM
TGI [3]: > 25 µM
GI50 [4]: 6.65 µM
TGI [4]: > 25 µM
GI50 [5]: 5.82 µM
TGI [5]: > 25 µM
GI50 [6]: > 25 µM
TGI [6]: > 25 µM
GI50 [7]: 8.46 µM
TGI [7]: > 25 µM
GI50 [8]: > 25 µM
TGI [8]: > 25 µM
GI50 [9]: 2.05 µM
TGI [9]: > 25 µM
GI50 [10]: 8.96 µM
TGI [10]: > 25 µM

O=C(Nc1ccc(OC(F)(F)F)cc1)c1sccc1NCc1ccnc2ccccc12
GI50 [1]: 3 µM
TGI [1]: > 40.9 µM
GI50 [2]: 2.56 µM
TGI [2]: > 100 µM
GI50 [3]: 1.75 µM
TGI [3]: 19.3 µM
GI50 [4]: 2.12 µM
TGI [4]: > 100 µM
GI50 [5]: 3.36 µM
TGI [5]: > 100 µM
GI50 [6]: 1.98 µM
TGI [6]: 15.5 µM
GI50 [7]: 1.28 µM
TGI [7]: 4.3 µM
GI50 [8]: 13 µM
TGI [8]: > 100 µM
GI50 [9]: 4.25 µM
TGI [9]: > 100 µM
GI50 [10]: 6.92 µM
TGI [10]: > 100 µM

C#C[C@]1(O)CC[C@H]2[C@@H]3CC=C4c5nc(Nc6ccccn6)sc5CC[C@]4(C)[C@H]3CC[C@@]21C
GI50 [1]: 0.26 µM
TGI [1]: 1.19 µM
GI50 [2]: 1.37 µM
TGI [2]: 10.2 µM
GI50 [3]: 1.26 µM
TGI [3]: 3.1 µM
GI50 [4]: 1.12 µM
TGI [4]: 2.73 µM
GI50 [5]: 1.6 µM
TGI [5]: 3.94 µM
GI50 [6]: 1 µM
TGI [6]: 3.11 µM
GI50 [7]: 0.603 µM
TGI [7]: 3.08 µM
GI50 [8]: 1.37 µM
TGI [8]: 5.59 µM
GI50 [9]: 0.542 µM
TGI [9]: 3.24 µM
GI50 [10]: 0.541 µM
TGI [10]: 2.13 µM

NS(=O)(=O)c1ccc(N2Cc3cc(Cl)ccc3OC3=C2C(=O)N(CC2CCCCC2)C3=O)cc1
GI50 [1]: 1.26 µM
TGI [1]: 2.85 µM
GI50 [2]: 0.286 µM
TGI [2]: 0.883 µM
GI50 [3]: 1.24 µM
TGI [3]: 2.55 µM
GI50 [4]: 0.208 µM
TGI [4]: 0.44 µM
GI50 [5]: 0.392 µM
TGI [5]: 1.1 µM
GI50 [6]: 1.11 µM
TGI [6]: 2.6 µM
GI50 [7]: 1.86 µM
TGI [7]: 3.65 µM
GI50 [8]: 1.6 µM
TGI [8]: 3.44 µM
GI50 [9]: 0.284 µM
TGI [9]: 0.839 µM
GI50 [10]: 1.3 µM
TGI [10]: 2.65 µM

Cc1cc2c(cc1C)NC1=C(N2)OC(c2c[nH]c3ccc(COc4ccccc4)cc23)C1=O (centres undefined)
TGI [1]: > 100 µM
TGI [2]: > 100 µM
TGI [3]: > 100 µM
TGI [4]: > 100 µM
TGI [5]: > 100 µM
TGI [6]: 67.1 µM
TGI [7]: > 100 µM
TGI [8]: > 100 µM
TGI [9]: > 100 µM
TGI [10]: > 100 µM

CCN(c1ccc(CO)c(Cl)c1)C(C)c1ccc(F)cc1 (centres undefined)
GI50 [1]: 0.117 µM
TGI [1]: 0.843 µM
GI50 [2]: 14.2 µM
TGI [2]: 27.7 µM
GI50 [3]: 8.46 µM
TGI [3]: 21.7 µM
GI50 [4]: 4.22 µM
TGI [4]: 17.4 µM
GI50 [5]: 15.5 µM
TGI [5]: 30 µM
GI50 [6]: 15.3 µM
TGI [6]: 30.1 µM
GI50 [7]: 13.2 µM
TGI [7]: 28 µM
GI50 [8]: 16 µM
TGI [8]: 30.5 µM
GI50 [9]: 19.8 µM
TGI [9]: 43.1 µM
GI50 [10]: 9 µM
TGI [10]: 22 µM

Nc1cc2c3c(cccc3c1)NC2=O
TGI [1]: > 100 µM
TGI [2]: > 100 µM
TGI [3]: > 100 µM
TGI [4]: > 100 µM
TGI [5]: > 100 µM
TGI [6]: > 100 µM
TGI [7]: > 100 µM
TGI [8]: > 100 µM
TGI [9]: > 100 µM
TGI [10]: > 100 µM

COc1ccc2nc(-c3ccccc3)cc(Nc3cccc(/C(C)=N\O)c3)c2c1
GI50 [1]: 11.8 µM
TGI [1]: 37.3 µM
GI50 [2]: 7.29 µM
TGI [2]: > 100 µM
GI50 [3]: 3.23 µM
TGI [3]: 12.9 µM
GI50 [4]: 2.58 µM
TGI [4]: > 100 µM
GI50 [5]: 28.2 µM
TGI [5]: > 100 µM
GI50 [6]: 2.54 µM
TGI [6]: 7.62 µM
GI50 [7]: 55.7 µM
TGI [7]: > 100 µM
GI50 [8]: 32.9 µM
TGI [8]: > 100 µM
GI50 [9]: 3.36 µM
TGI [9]: > 100 µM
GI50 [10]: 6.05 µM
TGI [10]: 48.5 µM

COc1ccc(C(=O)N2c3ccccc3Sc3ccccc32)c(F)c1
GI50 [1]: 0.33 µM
TGI [1]: 8.68 µM
GI50 [2]: 0.831 µM
TGI [2]: > 100 µM
GI50 [3]: 0.584 µM
TGI [3]: > 100 µM
GI50 [4]: 0.393 µM
TGI [4]: > 100 µM
GI50 [5]: 0.38 µM
TGI [5]: 43.3 µM
GI50 [6]: 3.52 µM
TGI [6]: > 100 µM
GI50 [7]: 0.531 µM
TGI [7]: > 100 µM
GI50 [8]: 0.571 µM
TGI [8]: > 100 µM
GI50 [9]: 0.38 µM
TGI [9]: > 100 µM
GI50 [10]: 0.615 µM
TGI [10]: > 100 µM

CC(C)c1ccc2nc3ccc(C(=O)NCCN(C)C)cn3c(=O)c2c1
TGI [1]: 30.8 µM
TGI [2]: 94.2 µM
TGI [3]: 45 µM
TGI [4]: 27.7 µM
TGI [5]: 24.5 µM
TGI [6]: 34.6 µM
TGI [8]: > 100 µM
TGI [9]: 63 µM
TGI [10]: 39.9 µM
